From patent US20120219952A1, “CARBAPENEMASE AND ANTIBACTERIAL TREATMENT” (priority 2009, published 2012)

Tests used:
[1] = system: P. stutzeri clinical isolate 13; assay: Routine antibiogram by disk diffusion assay; type: cell-based, Pseudomonas stutzeri; settings: clinical isolate P. stutzeri 13 expressing DIM-1
Experimental: Bacterial strains. P. stutzeri clinical isolate 13 was identified with the API-20 NE system (BioMérieux, Marcy l'Etoile, France), and confirmed by rRNA sequencing. Escherichia coli TOP10 (In Vitrogen, Carlsbad, Calif.)was the host for cloning experiments (Poirel et al., 2001)
(§1) Susceptibility testing. Antibiotic-containing disks were used for routine antibiograms by the disk diffusion assay (Sanofi-Diagnostic Pasteur, Marnes-la-Coquette, France). The ESBL double-disk synergy test was performed with disks containing ceftazidime or cefepime and ticarcillin-clavulanic acid on Mueller-Hinton agar plates, and the results were interpreted as described previously (Poirel, Le Thomas et al., 2000). The carbapenemase detection was performed by using Etest carbapenem-containing strips (AB Biodisk, Solna, Sweden).

E. coli DH10B(pXD-1) = assay: MICs by agar dilution technique; type: cell-based, Escherichia coli; settings: for restoration of susceptibility to penicillins on addition of inhibitor: clavulanic acid 2 μg/ml, tazobactam 4 μg/ml; for β-lactam susceptibility from MICs: agar dilution, 37° C., 18 h
Experimental: (§2) MICs were determined by an agar dilution technique with Mueller-Hinton agar (Sanofi-Diagnostic Pasteur) with an inoculum of 10^4 CFU/ml, as described previously (Poirel, Le Thomas et al., 2000). All plates were incubated at 37° C. for 18 h at ambient atmosphere. MICs of β-lactams were determined alone or in combination with a fixed concentration of clavulanic acid (2 μg/ml), tazobactam (4 μg/ml), and sulbactam (4 μg/ml). MIC results were interpreted according to the guidelines of the National Committee for Clinical Laboratory Standards (NCCLS) (CLSI).

P. stutzeri 13 [2] = assay: MICs by agar dilution technique; type: cell-based, Pseudomonas stutzeri; settings: for restoration of susceptibility to penicillins on addition of inhibitor: clavulanic acid 2 μg/ml, tazobactam 4 μg/ml; for β-lactam susceptibility from MICs: agar dilution, 37° C., 18 h
Experimental: as §2

carbapenemase DIM-1 = carbapenemase DIM-1 (Stutzerimonas stutzeri, UniProt D5JGF6); assay: Kinetic measurements with purified carbapenemase (hydrolysis of β-lactams); type: biochemical, P. stutzeri; settings: purified DIM-1, 30° C., 100 mM sodium phosphate pH 7.0
Excerpt: (§3) Carbapenemase purification and isoelectric focusing (IEF) analysis. […] Carbapenemase was purified by ion-exchange chromatography.

P. stutzeri 13 [3] = assay: Carbapenemase detection with Etest carbapenem-containing strips; type: cell-based, Pseudomonas stutzeri; settings: imipenem alone vs with EDTA
Experimental: as §1

[4] = system: CC(C)(O/N=C(\C(=O)N[C@@H]1C(=O)N2C(C(=O)[O-])=C(C[n+]3ccccc3)CS[C@H]12)c1csc(N)n1)C(=O)O; assay: Kinetic measurements with purified carbapenemase (hydrolysis of β-lactams); type: biochemical, P. stutzeri; settings: other: purified DIM-1, 30° C., 100 mM sodium phosphate pH 7.0
Excerpt: as §3

[5] = Specific activity of purified carbapenemase (imipenem hydrolysis); type: biochemical; settings: purified enzyme; 1 U = 1 μmol of imipenem hydrolyzed per min per mg of protein
Experimental: The specific activity of the purified carbapenemase from E. coli DH10B(pXD-1) was obtained as described previously (Poirel et al., 1999). One unit of enzyme activity was defined as the activity which hydrolyzed 1 μmol of imipenem per min per mg of protein. The total protein content was measured with the DC Protein assay kit (Bio-Rad, Ivry-sur-Seine, France).

Which “susceptibility of P. stutzeri 13” value [1] does the source give for `O=C(N[C@H](CO)[C@H](O)c1ccc([N+](=O)[O-])cc1)C(Cl)Cl` [chloramphenicol] here?
The value was “resistant”.

For `CCN1CCN(C(=O)N[C@@H](C(=O)N[C@@H]2C(=O)N3[C@@H]2SC(C)(C)[C@@H]3C(=O)O)c2ccccc2)C(=O)C1=O` [piperacillin], which “susceptibility of P. stutzeri 13” value [1] is on record?
Its value is “resistant”.

For gentamicin, which “susceptibility of P. stutzeri 13” value [1] is on record?
The value was “resistant”.

Which “susceptibility of P. stutzeri 13” value [1] does the source give for `NC[C@H]1O[C@H](O[C@H]2[C@H](O)[C@@H](O[C@H]3O[C@H](CO)[C@@H](O)[C@H](N)[C@H]3O)[C@H](N)C[C@@H]2N)[C@H](N)C[C@@H]1O` [tobramycin] here?
The value was “resistant”.

For `O=C(O)[C@H]1/C(=C/CO)O[C@@H]2CC(=O)N21` [clavulanic acid], which “restoration of susceptibility to penicillins on addition of inhibitor” value (E. coli DH10B(pXD-1)) is on record?
Its value is “did not restore any susceptibility to penicillins”.

What about the “restoration of susceptibility to penicillins on addition of inhibitor” value (P. stutzeri 13 [2]) of the same molecule?
The value was “did not restore any susceptibility to penicillins”.

For `CO/N=C(\C(=O)N[C@@H]1C(=O)N2C(C(=O)[O-])=C(C[n+]3cccc4c3CCC4)CS[C@H]12)c1csc(N)n1` [cefpirome], which “susceptibility of P. stutzeri 13” value [1] is on record?
The value was “reduced susceptibility”.

Which “hydrolysis by DIM-1 (relative hydrolysis rates, substrate profile)” value (from here on “relative hydrolysis rates”) (carbapenemase DIM-1) does the source give for `CO/N=C(\C(=O)N[C@@H]1C(=O)N2C(C(=O)O)=C(COC(C)=O)CS[C@H]12)c1csc(N)n1` [cefotaxime] here?
Its value is “hydrolyzed at a similar level as benzylpenicillin”.

With colistin as the molecule, how does the “susceptibility of P. stutzeri 13” value [1] read?
The value was “susceptible”.

For `CO[C@@]1(NC(=O)Cc2cccs2)C(=O)N2C(C(=O)O)=C(COC(N)=O)CS[C@@H]21` [cefoxitin], which “relative hydrolysis rates” value (carbapenemase DIM-1) is on record?
Its value is “good substrate”.

With `C[C@H]1[C@H](NC(=O)/C(=N\OC(C)(C)C(=O)O)c2csc(N)n2)C(=O)N1S(=O)(=O)O` [aztreonam] as the molecule, how does the “β-lactam susceptibility from MICs” value (E. coli DH10B(pXD-1)) read?
Its value is “spared”.

And the “susceptibility of P. stutzeri 13” value [1]?
The value was “fully susceptible”.

What about the “relative hydrolysis rates” value (carbapenemase DIM-1) of the same molecule?
The value was “excluding”.

What about the “β-lactam susceptibility from MICs” value (P. stutzeri 13 [2]) of the same molecule?
Its value is “spared”.

With piperacillin-tazobactam as the molecule, how does the “susceptibility of P. stutzeri 13” value [1] read?
Its value is “resistant”.

Which “susceptibility of P. stutzeri 13” value [1] does the source give for `CCN[C@@H]1C[C@H](N)[C@@H](O[C@H]2OC(CN)=CC[C@H]2N)[C@H](O)[C@H]1O[C@H]1OC[C@](C)(O)[C@H](NC)[C@H]1O` [netilmicin] here?
Its value is “susceptible”.

For `C[C@@H](O)[C@H]1C(=O)N2C(C(=O)O)=C(SCCN=CN)C[C@H]12` [imipenem], which “MIC (carbapenem-containing E-test)” value (P. stutzeri 13 [3]) is on record?
Its value is 64 µg/mL.

Which “susceptibility of P. stutzeri 13” value [1] does the source give for `CC(C)(O/N=C(\C(=O)N[C@@H]1C(=O)N2C(C(=O)[O-])=C(C[n+]3ccccc3)CS[C@H]12)c1csc(N)n1)C(=O)O` [ceftazidime] here?
The value was “reduced susceptibility”.

What about the “relative hydrolysis rates” value (carbapenemase DIM-1) of the same molecule?
Its value is “well hydrolyzed”.

With `CO/N=C(\C(=O)N[C@@H]1C(=O)N2C(C(=O)[O-])=C(C[N+]3(C)CCCC3)CS[C@H]12)c1csc(N)n1` [cefepime] as the molecule, how does the “susceptibility of P. stutzeri 13” value [1] read?
Its value is “reduced susceptibility”.

With `C[C@@H](O)[C@H]1C(=O)N2C(C(=O)O)=C(S[C@@H]3CN[C@H](C(=O)N(C)C)C3)[C@H](C)[C@H]12` [meropenem] as the molecule, how does the “β-lactam susceptibility from MICs” value (E. coli DH10B(pXD-1)) read?
The value was “reduced susceptibility”.

What about the “β-lactam susceptibility from MICs” value (P. stutzeri 13 [2]) of the same molecule?
The value was “reduced susceptibility”.

With `CC1(C)S[C@@H]2[C@H](NC(=O)[C@H](C(=O)O)c3ccsc3)C(=O)N2[C@H]1C(=O)O` [ticarcillin] as the molecule, how does the “susceptibility of P. stutzeri 13” value [1] read?
Its value is “resistant”.

For `NCC[C@H](O)C(=O)N[C@@H]1C[C@H](N)[C@@H](O[C@H]2O[C@H](CN)[C@@H](O)[C@H](O)[C@H]2O)[C@H](O)[C@H]1O[C@H]1O[C@H](CO)[C@@H](O)[C@H](N)[C@H]1O` [amikacin], which “susceptibility of P. stutzeri 13” value [1] is on record?
The value was “susceptible”.

Which results are given for `C[C@]1(Cn2ccnn2)[C@H](C(=O)O)N2C(=O)C[C@H]2S1(=O)=O` [tazobactam]?
restoration of susceptibility to penicillins on addition of inhibitor (E. coli DH10B(pXD-1)): did not restore any susceptibility to penicillins; restoration of susceptibility to penicillins on addition of inhibitor (P. stutzeri 13 [2]): did not restore any susceptibility to penicillins

Which Km [4] does the source give for “carbapenemase DIM-1 (Stutzerimonas stutzeri)” here?
The Km was 50 µM.

B1: DIM-1: Ambler class B carbapenemase (Dutch IMipenemase) from P. stutzeri 13, SEQ ID NO:1 (protein, listed as Pseudomonas stutzeri)
chain: MRTHFTALLLLFSLSSLANDEVPELRIEKVKENIFLHTSYSRVNGFGLVSSNGLVVIDKGNAFIVDTPWSDRDTETLVHWIRKNGYELLGSVSTHWHEDRTAGIKWLNDQSISTYATTSTNHLLKENKKEPAKYTLKGNESTLVDGLIEVFYPGGGHTIDNVVVWLPKSKILFGGCFVRSLDSEGLGYTGEAHIDQWSRSAQNALSRYSEAQIVIPGHGKIGDIALLKHTKSLAETASNKSIQPNANASAD
With B1 as the molecule, how does the specific activity [5] read?
The specific activity was 21 U.mg of protein^−1.
